Measured values taken from patent US20110218189A1, “PYRROLO[2,3-d]PYRIMIDIN-2-YL-AMINE DERIVATIVES AS PKC-THETA INHIBITORS” (N.V. ORGANON, priority 2008, published 2011).

Target: T1, His-tagged human recombinant active PKC theta (Homo sapiens, UniProt Q04759)
T1 construct: His; made in house
Assay: IMAP fluorescence polarization assay, inhibition of PKC theta kinase activity
Type: biochemical
Settings: ATP 10 μM, peptide substrate 50 nM, 60 minutes at 30° C.; read-out: IC50 IMAP PKCθ
Protocol: Inhibition of PKC theta kinase activity was measured using an Immobilized Metal for Phosphochemicals—based coupled assay (IMAP). IMAP is a homogeneous fluorescence polarization (FP) assay based on affinity capture of phosphorylated peptide substrates. IMAP uses fluorescein-labeled peptide substrates that, upon phosphorylation by a protein kinase, bind to so called IMAP nanoparticles, which are derivatized with trivalent metal complexes. Such binding causes a change in the rate of the molecular motion of the peptide, and results in an increase in the FP value observed for the fluorescein label attached to the substrate peptide. In this assay, PKC theta directly phosphorylates the fluorescein-labeled peptide substrate.
Enzymes, substrate and ATP are diluted at all steps in Kinase Reaction buffer (10 mM Tris-HCl, 10 mM MgCl2, 0.01% Tween-20, 0.05% NaN3 pH 7.2, 1 mM DTT). The final volume at the kinase reaction step of the assay in the 384-well plate is 20 μl. The concentrations presented within brackets are final concentrations. First, compounds or DMSO (1%) are added to the wells. Thereafter, peptide substrate (Pseudosubstrate LHQRRGSIKQAKVHHVK-FL, Neosystem, 50 nM) and ATP (10 μM) are added followed by the addition of the PKC theta enzyme (His-tagged human recombinant active PKC theta, 82 kDa, in-house purified, 10 ng/ml), and the mix is incubated for 60 minutes at 30° C. in the dark. Then IMAP progressive binding buffer (100% 1× buffer A, 1:400 Progressive Binding Reagent; Molecular Devices) is added followed by an incubation step of 60 minutes at room temperature in the dark. Finally, the FP signal is read.

T1 sequence (Q04759 whole entry): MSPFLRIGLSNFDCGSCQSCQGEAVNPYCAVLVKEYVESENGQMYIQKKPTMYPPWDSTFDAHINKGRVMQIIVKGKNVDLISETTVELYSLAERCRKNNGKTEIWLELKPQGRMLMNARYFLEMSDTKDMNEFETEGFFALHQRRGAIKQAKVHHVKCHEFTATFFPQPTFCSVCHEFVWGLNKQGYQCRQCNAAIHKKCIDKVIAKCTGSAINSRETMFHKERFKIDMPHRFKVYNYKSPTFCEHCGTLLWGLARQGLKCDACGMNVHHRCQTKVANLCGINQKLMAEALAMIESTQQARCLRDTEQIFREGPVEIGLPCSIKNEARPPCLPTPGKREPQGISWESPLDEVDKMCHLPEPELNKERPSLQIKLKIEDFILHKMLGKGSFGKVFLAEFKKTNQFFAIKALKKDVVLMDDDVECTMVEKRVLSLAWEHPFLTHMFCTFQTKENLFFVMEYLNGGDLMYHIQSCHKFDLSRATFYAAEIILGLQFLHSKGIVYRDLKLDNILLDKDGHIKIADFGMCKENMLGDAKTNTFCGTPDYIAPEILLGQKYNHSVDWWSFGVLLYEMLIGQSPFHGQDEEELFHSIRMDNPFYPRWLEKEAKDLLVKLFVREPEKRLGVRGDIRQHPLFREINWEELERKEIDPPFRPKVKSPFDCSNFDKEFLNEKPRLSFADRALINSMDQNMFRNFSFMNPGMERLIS

Structure (SMILES)	IC50
Fc1ccc(CNc2ncc3cc(-c4ccccc4Cl)n(C[C@@H]4CCCNC4)c3n2)cc1F [Example 1.1, (R)-6-(2-chlorophenyl)-N-(3,4-difluorobenzyl)-7-(piperidin-3-ylmethyl)-7H-pyrrolo[2,3-d]pyrimidin-2-amine]	< 0.01 µM
Oc1ccc(CNc2ncc3cc(-c4ccccc4Cl)n(C[C@@H]4CCCNC4)c3n2)cc1 [Example 1.2, (R)-4-((6-(2-chlorophenyl)-7-(piperidin-3-ylmethyl)-7H-pyrrolo[2,3-d]pyrimidin-2-ylamino)methyl)phenol]	0.01 to 0.1 µM
Oc1cccc(CNc2ncc3cc(-c4ccccc4Cl)n(C[C@@H]4CCCNC4)c3n2)c1 [Example 1.3, (R)-3-((6-(2-chlorophenyl)-7-(piperidin-3-ylmethyl)-7H-pyrrolo[2,3-d]pyrimidin-2-ylamino)methyl)phenol]	0.01 to 0.1 µM
Oc1ccc(CNc2ncc3cc(-c4ccccc4Cl)n(C[C@@H]4CCCNC4)c3n2)cc1F [Example 1.4, (R)-4-((6-(2-chlorophenyl)-7-(piperidin-3-ylmethyl)-7H-pyrrolo[2,3-d]pyrimidin-2-ylamino)methyl)-2-fluorophenol]	< 0.01 µM
Oc1cccc(CNc2ncc3cc(-c4c(Cl)cccc4Cl)n(C[C@@H]4CCCNC4)c3n2)c1 [Example 2.1, (R)-3-((6-(2,6-dichlorophenyl)-7-(piperidin-3-ylmethyl)-7H-pyrrolo[2,3-d]pyrimidin-2-ylamino)methyl)phenol]	< 0.01 µM
Fc1ccc(CNc2ncc3cc(-c4c(Cl)cccc4Cl)n(C[C@@H]4CCCNC4)c3n2)cc1F [Example 2.2, (R)-6-(2,6-dichlorophenyl)-N-(3,4-difluorobenzyl)-7-(piperidin-3-ylmethyl)-7H-pyrrolo[2,3-d]pyrimidin-2-amine]	< 0.01 µM
Oc1ccc(CNc2ncc3cc(-c4c(Cl)cccc4Cl)n(C[C@@H]4CCCNC4)c3n2)cc1 [Example 2.3, (R)-4-((6-(2,6-dichlorophenyl)-7-(piperidin-3-ylmethyl)-7H-pyrrolo[2,3-d]pyrimidin-2-ylamino)methyl)phenol]	0.1 to 10 µM
COc1ccc(CNc2ncc3cc(-c4c(Cl)cccc4Cl)n(C[C@@H]4CCCNC4)c3n2)cc1F [Example 2.4, (R)-6-(2,6-dichlorophenyl)-N-(3-fluoro-4-methoxybenzyl)-7-(piperidin-3-ylmethyl)-7H-pyrrolo[2,3-d]pyrimidin-2-amine]	< 0.01 µM
Fc1cccc(CNc2ncc3cc(-c4c(Cl)cccc4Cl)n(C[C@@H]4CCCNC4)c3n2)c1 [Example 2.5, (R)-6-(2,6-dichlorophenyl)-N-(3-fluorobenzyl)-7-(piperidin-3-ylmethyl)-7H-pyrrolo[2,3-d]pyrimidin-2-amine]	< 0.01 µM
Clc1cccc(Cl)c1-c1cc2cnc(NCc3ccccc3)nc2n1C[C@@H]1CCCNC1 [Example 2.6, (R)-N-benzyl-6-(2,6-dichlorophenyl)-7-(piperidin-3-ylmethyl)-7H-pyrrolo[2,3-d]pyrimidin-2-amine]	< 0.01 µM
Cc1c(-c2ccccc2Cl)n(C[C@@H]2CCCNC2)c2nc(NCc3ccc(F)c(F)c3)ncc12 [Example 3.1, (R)-6-(2-chlorophenyl)-N-(3,4-difluorobenzyl)-5-methyl-7-(piperidin-3-ylmethyl)-7H-pyrrolo[2,3-d]pyrimidin-2-amine]	0.01 to 0.1 µM
Cc1c(-c2c(Cl)cccc2Cl)n(C[C@@H]2CCCNC2)c2nc(NCc3ccc(F)c(F)c3)ncc12 [Example 3.2, (R)-6-(2,6-dichlorophenyl)-N-(3,4-difluorobenzyl)-5-methyl-7-(piperidin-3-ylmethyl)-7H-pyrrolo[2,3-d]pyrimidin-2-amine]	< 0.01 µM
Cc1c(-c2ccccc2)n(C[C@@H]2CCCNC2)c2nc(NCc3ccc(F)c(F)c3)ncc12 [Example 3.3, (R)—N-(3,4-difluorobenzyl)-5-methyl-6-phenyl-7-(piperidin-3-ylmethyl)-7H-pyrrolo[2,3-d]pyrimidin-2-amine]	0.1 to 10 µM
Fc1ccc(CNc2ncc3cc(-c4ccccc4Cl)n(C[C@H]4CCCNC4)c3n2)cc1F [Example 4.1, (S)-6-(2-chlorophenyl)-N-(3,4-difluorobenzyl)-7-(piperidin-3-ylmethyl)-7H-pyrrolo[2,3-d]pyrimidin-2-amine]	0.01 to 0.1 µM
Fc1ccc(CNc2ncc3cc(-c4ccccc4Cl)n(C[C@@H]4CCNC4)c3n2)cc1F [Example 4.2, (R)-6-(2-chlorophenyl)-N-(3,4-difluorobenzyl)-7-(pyrrolidin-3-ylmethyl)-7H-pyrrolo[2,3-d]pyrimidin-2-amine]	0.1 to 10 µM
Fc1ccc(CNc2ncc3cc(-c4ccccc4Cl)n(C[C@H]4CCNC4)c3n2)cc1F [Example 4.3, (S)-6-(2-chlorophenyl)-N-(3,4-difluorobenzyl)-7-(pyrrolidin-3-ylmethyl)-7H-pyrrolo[2,3-d]pyrimidin-2-amine]	0.01 to 0.1 µM
Fc1ccc(CNc2ncc3cc(-c4ccccc4Cl)n(CC4CNCCO4)c3n2)cc1F (centres unmarked) [Example 4.4, 6-(2-chlorophenyl)-N-(3,4-difluorobenzyl)-7-(morpholin-2-ylmethyl)-7H-pyrrolo[2,3-d]pyrimidin-2-amine]	0.01 to 0.1 µM
Cc1ccc(-c2cc3cnc(NCc4ccc(F)c(F)c4)nc3n2C[C@@H]2CCCNC2)c(Cl)c1 [Example 5.1, (R)-6-(2-chloro-4-methylphenyl)-N-(3,4-difluorobenzyl)-7-(piperidin-3-ylmethyl)-7H-pyrrolo[2,3-d]pyrimidin-2-amine]	< 0.01 µM
COc1ccc(-c2cc3cnc(NCc4ccc(F)c(F)c4)nc3n2C[C@@H]2CCCNC2)c(Cl)c1 [Example 5.2, (R)-6-(2-chloro-4-methoxyphenyl)-N-(3,4-difluorobenzyl)-7-(piperidin-3-ylmethyl)-7H-pyrrolo[2,3-d]pyrimidin-2-amine]	0.01 to 0.1 µM
Oc1ccc(-c2cc3cnc(NCc4ccc(F)c(F)c4)nc3n2C[C@@H]2CCCNC2)c(Cl)c1 [Example 5.3, (R)-3-chloro-4-(2-(3,4-difluorobenzylamino)-7-(piperidin-3-ylmethyl)-7H-pyrrolo[2,3-d]pyrimidin-6-yl)phenol]	< 0.01 µM
Fc1ccc(CNc2ncc3cc(-c4ccc(Cl)cc4Cl)n(C[C@@H]4CCCNC4)c3n2)cc1F [Example 5.4, (R)-6-(2,4-dichlorophenyl)-N-(3,4-difluorobenzyl)-7-(piperidin-3-ylmethyl)-7H-pyrrolo[2,3-d]pyrimidin-2-amine]	0.01 to 0.1 µM
Fc1cc(Cl)c(-c2cc3cnc(NCc4ccc(F)c(F)c4)nc3n2C[C@@H]2CCCNC2)c(Cl)c1 [Example 5.5, (R)-6-(2,6-dichloro-4-fluorophenyl)-N-(3,4-difluorobenzyl)-7-(piperidin-3-ylmethyl)-7H-pyrrolo[2,3-d]pyrimidin-2-amine]	< 0.01 µM
Oc1ccc(CNc2ncc3cc(-c4c(Cl)cccc4Cl)n(C[C@@H]4CCCNC4)c3n2)cc1Cl [Example 6.1, (R)-2-chloro-4-((6-(2,6-dichlorophenyl)-7-(piperidin-3-ylmethyl)-7H-pyrrolo[2,3-d]pyrimidin-2-ylamino)methyl)phenol]	< 0.01 µM
Oc1ccc(CNc2ncc3cc(-c4c(Cl)cccc4Cl)n(C[C@@H]4CCCNC4)c3n2)cc1F [Example 6.2, (R)-4-((6-(2,6-dichlorophenyl)-7-(piperidin-3-ylmethyl)-7H-pyrrolo[2,3-d]pyrimidin-2-ylamino)methyl)-2-fluorophenol]	< 0.01 µM
N#Cc1c(-c2c(Cl)cccc2Cl)n(C[C@@H]2CCCNC2)c2nc(NCc3ccc(F)c(F)c3)ncc12 [Example 7.1, (R)-6-(2,6-dichlorophenyl)-2-(3,4-difluorobenzylamino)-7-(piperidin-3-ylmethyl)-7H-pyrrolo[2,3-d]pyrimidine-5-carbonitrile]	< 0.01 µM
Fc1ccc(CNc2ncc3c(F)c(-c4c(Cl)cccc4Cl)n(C[C@@H]4CCCNC4)c3n2)cc1F [Example 7.2, (R)-6-(2,6-dichlorophenyl)-N-(3,4-difluorobenzyl)-5-fluoro-7-(piperidin-3-ylmethyl)-7H-pyrrolo[2,3-d]pyrimidin-2-amine]	< 0.01 µM
Fc1ccc(CNc2ncc3c(Br)c(-c4c(Cl)cccc4Cl)n(C[C@@H]4CCCNC4)c3n2)cc1F [Example 7.3, (R)-5-bromo-6-(2,6-dichlorophenyl)-N-(3,4-difluorobenzyl)-7-(piperidin-3-ylmethyl)-7H-pyrrolo[2,3-d]pyrimidin-2-amine]	< 0.01 µM
Fc1ccc(CNc2ncc3cc(-c4c(Cl)cccc4Cl)n(CC4CNCCS4)c3n2)cc1F (centres unmarked) [Example 8.1, 6-(2,6-Dichlorophenyl)-N-(3,4-difluorobenzyl)-7-(thiomorpholin-2-ylmethyl)-7H-pyrrolo[2,3-d]pyrimidin-2-amine]	< 0.01 µM
Fc1ccc(CNc2ncc3cc(-c4c(Cl)cccc4Cl)n(C4CCCNCC4)c3n2)cc1F (centres unmarked) [Example 8.2, 7-(Azepan-4-yl)-6-(2,6-dichlorophenyl)-N-(3,4-difluorobenzyl)-7H-pyrrolo[2,3-d]pyrimidin-2-amine]	< 0.01 µM
